“And” between values parts separate entries of the source, which are not always exact repeats. Equal entries are not always repeated. Where two headings read alike, the source gives them in different places.
Assays:
in vitro = assay type: cell-based; conditions: human
Experimental: (§1) The methodology used to perform these experiments in MT-2 cell culture was reported previously. Infectious HIV-1NL4-3-Ren supernatants were obtained from transfection in 293T cells with plasmid pNL4-3-Ren, where a Renilla luciferase reporter gene replaces the nef gene of the wild-type pNL4-3 HIV-1 clone, which includes LTR promoters. MT-2 cells were infected with these supernatants (100,000 RLUs/well) in the presence of the compounds, and anti-HIV activity was quantified 48 h post-infection by determining Renilla luciferase activity in cell lysates compared to a non-treated control (100%), following the manufacturer’s instructions (Renilla Assay System, Promega). Briefly, 100 µL of Renilla Assay System buffer was added to obtain cell lysates, and 35 µL of these lysates was then transferred to a white 96-well microplate. RLUs were recorded after injecting 35 µL of Renilla substrate (10 s reading) using a luminometer (Berthold Detection Systems). Cellular viability was evaluated in mock-infected cells similarly treated with the same concentrations of compounds using the CellTiter-Glo assay (Promega). To assess the antiretroviral activity of benfluron in human primary cells, PBMCs were isolated from healthy donors via Ficoll density gradient centrifugation and subsequently cultured in a PHA (1 µg/mL) and IL-2 (100 U/mL)-enriched medium for 48 h at 37 °C. Activated PBMCs were infected with HIV-1NL4-3 [20] at a multiplicity of infection of 0.001 and cultured in the presence of serial dilutions (5 nM–100 µM) of benfluron. Three days post-infection, the supernatant was collected, and the HIV-inhibitory effect of the drug was measured using the Alliance HIV-1 p24 Antigen Elisa Kit (Perkin Elmer). The toxicity of the compound in PBMCs was evaluated as explained above for MT-2 cells. In both experiments, the potential background toxicity and antiviral effect of the DMSO vehicle used to solubilize the molecule were determined in parallel. In all cases, EC50 and CC50 values were calculated with GraphPad Prism using log(inhibitor) vs. response non-linear curve fitting. All cellular assays were performed in triplicate.

[1] = test system: full-length RRE–Rev complex; assay: EMSA of full-length RRE–Rev complex formation inhibition; assay type: biochemical, HIV-1; conditions: low-order RRE–Rev complex EMSA bands; 70 nM RRE, 0.75 µM Rev; 95% CI and R2 in parentheses
Experimental: These assays were used to monitor full-length RRE–Rev inhibition and involved the viral protein Rev and a 234 nt RRE sequence (Figure 1), obtained as reported previously. RRE was prepared in native conditions using a procedure based on electrophoresis. The reactions used 70 nM RRE and 0.75 μM Rev dissolved in an aqueous solution containing 10 mM HEPES, pH 7.5, 300 mM KCl, 1 mM MgCl2 and 0.5 mM EDTA, and the samples were loaded onto 8% polyacrylamide gels with TB running buffer. Gels were run at 4 °C for 3 h at 150 V, and the bands were stained with SYBR Gold and quantified with ImageJ software. In all cases, we monitored the disappearance of the bands corresponding to low-order RRE–Rev complexes (Figure 4A) using a sigmoidal inhibitory model and GraphPad Prism. At least three independent experiments were conducted for each compound.

RRE subdomain IIB = assay: Fluorescence binding to fluorescein-labeled (U23) RRE subdomain IIB RNA hairpin; design: species or system HIV-1; conditions: RRE IIB hairpin labeled with fluorescein at U23; 100 nM RNA, pH 6.6; 95% CI and R2 in parentheses
Experimental: These experiments measured compound association to an RRE subdomain IIB RNA oligonucleotide labeled with fluorescein at extrahelical loop nucleotide U23 (Figure 1) and were carried out in a Spectramax iD5 microplate reader (Molecular Devices) using 100 nM RNA dissolved in 10 mM sodium phosphate, pH 6.6, and 0.1 mM EDTA, as described before. The equilibrium dissociation constants, Kd, were determined by fitting the fluorescence intensity curves to a two-state binding model with GraphPad Prism software. […] All fluorescence experiments were carried out at least three times for each compound.

HIV-1NL4-3-Ren [2] = assay: Anti-HIV activity in MT-2 cells infected with HIV-1NL4-3-Ren (Renilla luciferase); assay type: cell-based; conditions: for EC50: Human immunodeficiency virus 1, MT2, 48 h
Experimental: as §1

HIV-1NL4-3 = assay: Antiretroviral activity in activated PBMCs infected with HIV-1NL4-3 (p24 ELISA); assay type: cell-based
Experimental: as §1, with “Briefly, 100 µL of Renilla Assay System buffer was added to obtain cell lysates, and 35 µL of these lysates was then transferred to a white 96-well microplate.” left out, “To assess the antiretroviral activity of benfluron in human primary cells, PBMCs were isolated from healthy donors via Ficoll density gradient centrifugation and subsequently cultured in a PHA (1 µg/mL) and IL-2 (100 U/mL)-enriched medium for 48 h at 37 °C. Activated PBMCs were infected with HIV-1NL4-3 [20] at a multiplicity of infection of 0.001 and cultured in the presence of serial dilutions (5 nM–100 µM) of benfluron.” left out, “In all cases, EC50 and CC50 values were calculated with GraphPad Prism using log(inhibitor) vs. response non-linear curve fitting. All cellular assays were performed in triplicate.” left out

PBMCs = assay: in vitro; assay type: cell-based; conditions: human
Experimental: as §1

MT-2 cells = test system: MT-2 cells; design: method as in PMID 30071201; conditions: cited from earlier work
HIV-1NL4-3-Ren [3] = test system: HIV-1NL4-3-Ren; design: method as in PMID 30071201; conditions: MT-2 cells, HIV-1 infection; cited from earlier work

Structure (SMILES) | CC50 at 48 h (in vitro; CC50) | IC50 [1] | Kd (RRE subdomain IIB) | EC50 (HIV-1NL4-3-Ren [2]) | selectivity index (SI; CC50/EC50) (HIV-1NL4-3-Ren [2]; MT-2 cells) | CC50 at 48 h (in vitro; MT-2 cells, mock-infected, 95% CI and R2 in parentheses, read-out: CC50) | selectivity index (SI; CC50/EC50) (HIV-1NL4-3) | EC50 (HIV-1NL4-3; Human immunodeficiency virus 1, PBMC, 72 h, HIV-1NL4-3, three days post-infection, p24, read-out: antiviral EC50) | CC50 (in vitro; cytotoxic CC50) | CC50 (PBMCs) | CC50 (MT-2 cells) | EC50 (HIV-1NL4-3-Ren [3])
CN(C)CCOc1ccc2c(c1)C(=O)c1ccccc1-2 [Compound 1] | > 100 µM | > 50 µM | 45.6 µM | > 100 µM |  |  |  |  |  |  |  | 
CN(C)CCOc1cccc(C(=O)c2ccccc2)c1 [Compound 2] | ~100 µM | > 50 µM | > 100 µM | ~100 µM |  |  |  |  |  |  |  | 
CN(C)CCOc1ccc2c(c1)Cc1ccccc1-2 [Compound 3] | ~100 µM | > 50 µM | 106 µM | ~100 µM |  |  |  |  |  |  |  | 
CN(C)CCOc1ccc(-c2ccccc2)c2ccccc12 [Compound 4] | 28.7 µM | > 50 µM | 77.5 µM | 17 µM |  |  |  |  |  |  |  | 
CN(C)CCOc1cc(C(=O)c2ccccc2)cc2ccccc12 [Compound 5] | 49.7 µM | ~29 µM and 29 µM | 95.1 µM | 19.4 µM | 2.6 |  |  |  |  |  |  | 
CN1CCN(CCOc2cc(C(=O)c3ccccc3)cc3ccccc23)CC1 [Compound 6] | 20 to 100 µM | ~45 µM and 45 µM | 34 µM | 24.2 µM |  | 20 to 49.7 µM |  |  |  |  |  | 
CN(C)CCOc1cc2c(c3ccccc13)-c1ccccc1C2=O [benfluron] |  | 5 µM | 4.83 µM |  |  |  | 1.3 | 5.5 µM | 7.1 µM | 7.09 µM | 28.1 µM | 0.83 µM
